Measurements: patent publication US6794149B1, “GABA B receptors” (Bayer Aktiengesellschaft, priority 1999, dated 2004)

Tests used:
D-GABA B receptors R1/R2 = assay: cAMP measurement in HEK293 cells stably coexpressing D-GABA B R1/R2; type: cell-based, Drosophila melanogaster; settings: D-GABA B R1/2-transfected HEK293 cells; GABA (100 μM) with forskolin (10 μM), 30 minutes, 37° C.; FIG. 2
Protocol: HEK293 cells were cultured at 5% CO2 and 37° C. in Dulbecco's modified Eagle's medium and 10% foetal calf serum. MBS (Stratagene, La Jolla, USA) was used for the gene transfer, following the manufacturer's instructions. 24 h to 48 h after the gene transfer, the cells were sown intro microtiter plates at various densities. Recombinant cells were selected over 3 to 4 weeks by growth in Dulbecco's modified Eagles medium and 10% foetal calf serum and 700 μg/ml Geneticin (G418, Life Technologies, Karlsruhe) as selection marker. Individual resistant clones were analysed as described below.
HEK293 cell strains were used for determining the cAMP concentration. On the one hand, HEK293 cells stably coexpressed the two Drosophila melanogaster receptors D-GABA B R1 and D-GABA B R2 (D-GABA R1/2). On the other hand, untransfected control cells were incorporated into the assay (control). In each case, the cells were plated into 96-well-plates at a density of 20,000 cells per cavity. […] The cells were lysed for 20 minutes at room temperature with shaking, and the cAMP concentration of the cell lysates were determined in triplicate using the enzyme immunoassay (EIA) kit AK-200 (Biomol, Hamburg, Germany) following the manufacturer's description.

[1] = tested on: untransfected control cells (HEK293); assay: cAMP measurement in untransfected HEK293 control cells; type: cell-based; settings: GABA (100 μM) with forskolin (10 μM), 30 minutes, 37° C., FIG. 2
Protocol: HEK293 cell strains were used for determining the cAMP concentration. On the one hand, HEK293 cells stably coexpressed the two Drosophila melanogaster receptors D-GABA B R1 and D-GABA B R2 (D-GABA R1/2). On the other hand, untransfected control cells were incorporated into the assay (control). In each case, the cells were plated into 96-well-plates at a density of 20,000 cells per cavity. Control cells were incubated in culture medium (DMEM, 10% FCS, penicillin and streptomycin, 50 U/ml and 50 μg/ml (Life Technologies)) and D-GABA-R1/2 expressing cells in selection medium (culture medium with 0.5 mg/ml Geneticin (G418, Life Technologies)) for 48 hours at 37° C. until a cell density of approximately 80% was reached. Thereupon, the medium was removed, and the cells were washed once with unsupplemented DMEM. After incubation for 30 minutes with IBMX (300 μM) at 37° C., cells were stimulated for 30 minutes with GABA (100 μM) and/or forskolin (10 μM) at 37° C. All incubation steps were carried out in unsupplemented DMEM (Life Technologies). […] The cells were lysed for 20 minutes at room temperature with shaking, and the cAMP concentration of the cell lysates were determined in triplicate using the enzyme immunoassay (EIA) kit AK-200 (Biomol, Hamburg, Germany) following the manufacturer's description.

NCCCC(=O)O [GABA, Gamma-amino-butyric acid]
forskolin-induced cAMP response (intracellular cAMP concentration) (D-GABA B receptors R1/R2): marked reduction
forskolin-induced cAMP response (intracellular cAMP concentration) [1]: unresponsive
